One assay has as its system h-sgk expression. As to the kind of experiment: Transcriptional regulation of h-sgk (Northern blot). The assay is classed as cell-based. As to conditions: FIG. 1; TGFβ1 effect shown after 0.5 to 6 h. The protocol: (§1) Cells were cultivated in RPMI/5% CO2/10 mM glucose at 37° C., pH 7.4, supplemented with 10% (vol/vol) fetal calf serum (FCS). The cells were grown to 90% confluence and then homogenized in TRIZOL (GIBCO/BRL) (about 0.4×10^6 per sample). Total RNA was prepared in accordance with the manufacturer's instructions. Northern blots were fractionated by electrophoresis through 10 g/l agarose gels with 15 or 20 μg of total RNA with separate control in the presence of 2.4 mol/l formaldehyde. RNA was transferred by vacuum (Appligene Oncor Trans DNA Express Vacuum Blotter, Appligine, Heidelberg, Germany) to positively charged nylon membranes (Boehringer Mannheim, Germany) and crosslinked under ultraviolet light (UV Stratalinker 2400, Stratagene, Heidelberg, Germany). Hybridization was carried out over night with DIG-Easy-Hyb (Boehringer Mannheim) at a probe concentration of 25 μg/l at 50° C. The digoxigenin (DIG)-labeled probes were produced by PCR as described in detail earlier (Waldegger et al. (1997) PNAS 94: 4440-4445). For the autoradiography, the filters were exposed to an X-ray film (Kodak) for an average of 5 min.

The next assay has as its system biglycan expression. The assay is described as follows: Transcriptional regulation of biglycan (Northern blot). In kind it is cell-based. As to conditions: FIG. 2; for effect of TGFβ1 on biglycan expression in the presence of the NKCC inhibitor: TGFβ1-stimulated. The procedure: as §1
A further assay concerns the target T1, h-sgk (Homo sapiens, UniProt O00141).
T1 construct: expressed in transfected cells; host or cells: Xenopus laevis oocytes (cRNA injection)
T1 sequence (O00141 1-431): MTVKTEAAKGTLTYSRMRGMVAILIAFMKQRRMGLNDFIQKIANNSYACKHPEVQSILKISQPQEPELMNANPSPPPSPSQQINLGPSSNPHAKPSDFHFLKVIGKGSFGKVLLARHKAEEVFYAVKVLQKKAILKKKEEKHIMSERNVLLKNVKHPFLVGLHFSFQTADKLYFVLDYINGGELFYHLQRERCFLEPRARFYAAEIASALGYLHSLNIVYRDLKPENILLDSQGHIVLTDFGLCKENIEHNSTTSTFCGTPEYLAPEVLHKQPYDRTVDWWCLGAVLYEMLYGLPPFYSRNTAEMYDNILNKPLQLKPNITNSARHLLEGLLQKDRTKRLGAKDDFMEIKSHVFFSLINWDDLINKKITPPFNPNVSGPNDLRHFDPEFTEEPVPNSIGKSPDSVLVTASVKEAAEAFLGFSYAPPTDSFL
The assay is described as follows: Two-electrode voltage clamp of ENaC current in oocytes coexpressing h-sgk. In kind it is cell-based. Conditions: for activation of ENaC (Na+ channel current) by h-sgk: oocytes coexpressing ENaC and h-sgk, treated with kinase inhibitor, FIG. 4. The protocol:
(§2) Dissection of Xenopus laevis, and the obtaining and treatment of the oocytes has been described in detail earlier (Busch et al. 1992). The oocytes were each injected with 1 ng of cRNA of NKCC, ENaC or MDEG with or without simultaneous injection of h-sgk. It was possible to carry out two-electrode voltage and current clamp experiments 2-8 days after the injection. Na^+ influx which could be inhibited by furosemide through the NKCC was measured by the ^22Na^+ uptake, which was determined with a scintillation counter, into the oocytes. Na^+ currents (ENaC) were filtered at 10 Hz and recorded with a pen recorder. The experiments were normally carried out on the second day after cRNA injection. The bath solution contained: 96 mM NaCl, 2 mM KCl, 1.8 mM CaCl2, 1 mM MgCl2 and 5 mM HEPES at pH 7.5 and the holding potential was −50 mV. The pH was adjusted by titration with HCl or NaOH in all the experiments. The flow rate of the bath liquid was set at 20 ml/min, which ensured a complete change of solution in the measurement chamber within 10-15 s. All the data are stated in the form of arithmetic means ±SEM.

In the next assay the test system is NKCC. As to the kind of experiment: 22Na+ tracer flux (furosemide-inhibitable Na+ uptake) in oocytes expressing NKCC with or without h-sgk. The assay is classed as cell-based, Xenopus laevis. Conditions: 22Na+ uptake. The protocol:
as §2

Substitutions are numbered along the chain they refer to. Numbers in names are those of the source. Entries after “also recorded” stand apart in the source; their conditions may differ.

With `CCCCCCCCCC(=O)O[C@@H]1[C@@H](C)[C@@]2(O)[C@@H](C=C(CO)C[C@@]3(O)C(=O)C(C)=C[C@@H]23)[C@@H]2C(C)(C)[C@]12OC(=O)CCCCCCCCC` [PDD, 4-alpha-phorbol 12,13-didecanoate], the expression of h-sgk result in the assay on h-sgk expression is “likewise stimulate”.

For `CCCCNc1cc(C(=O)O)cc(S(N)(=O)=O)c1Oc1ccccc1` [bumetanide], the “effect of TGFβ1 on biglycan expression in the presence of the NKCC inhibitor” value in the assay on biglycan expression was “almost completely suppressed”.

For `COc1ccc2c(c[n+](C)c3c4cc5c(cc4ccc23)OCO5)c1OC` [chelerythrine], the “activation of ENaC (Na+ channel current) by h-sgk” value on h-sgk is “suppresses; also recorded: completely to suppress”.

For the molecule `NS(=O)(=O)c1cc(C(=O)O)c(NCc2ccco2)cc1Cl` [furosemide], in the assay on biglycan expression, the “effect of TGFβ1 on biglycan expression in the presence of the NKCC inhibitor” value is recorded as “completely suppressed”. The “increased expression of the matrix proteins in fibroblasts” value in the assay on biglycan expression (fibroblasts) is reported as “can be suppressed”. The “Na+ influx in NKCC-injected oocytes” value in the assay with NKCC (NKCC alone, without h-sgk, FIG. 3 top) was “not inhibited”. Further, in the assay with NKCC (oocytes coexpressing h-sgk and NKCC, FIG. 3 below), the “increase in Na+ influx on coexpression of h-sgk with NKCC” value is recorded as “completely suppressed”.

On to `C[C@H](CCC(=O)O)C[C@H](C)C[C@H](C)C(=O)/C=C(\O)[C@H](C)C[C@H](C)C/C=C/[C@@H](C)[C@@H](O)[C@@H](C)[C@@H](O)C[C@@H]1CC[C@@](C)([C@H]2CC[C@@](C)([C@@H](C)O)O2)O1` [ionomycin], for which the expression of h-sgk entry with h-sgk expression is listed as “likewise stimulate”.

Take `CN[C@@H]1C[C@H]2O[C@@](C)([C@@H]1OC)n1c3ccccc3c3c4c(c5c6ccccc6n2c5c31)C(=O)NC4` [staurosporine]: the “activation of ENaC (Na+ channel current) by h-sgk” value on h-sgk was “suppresses; also recorded: completely to suppress”.

Consider TGFβ1: tumor growth factor β1, for which the expression of h-sgk result with h-sgk expression was “stimulated”. The expression of biglycan entry in the assay with biglycan expression is listed as “stimulated”.

B1: trans-dominant inhibitory kinase: h-sgk modified by mutation: lysine in position 127 replaced by arginine (K127R); suppresses the catalytic function (protein, UniProt O00141 1-431, looked up, variant K127R)
Serine/threonine-protein …: T1 sequence (O00141 1-431) with K127R
Turning to B1, in the assay with h-sgk (coexpression of the trans-dominant inhibitory kinase in oocytes, FIG. 5), the “stimulating effect of h-sgk coexpression on the ENaC-mediated Na+ current” value is recorded as “can be suppressed”.

The record behind these values is patent US20050064501A1, “Medicaments comprising inhibitors of the cell volume-regulated human kinase h-sgk” (PROF. DR. MED. F. LANG, priority 1999, published 2005).
